# Columns and labels:
# [1] = tested on: PDE1A present in fractions 6 and 11; experiment: PDE assay on anion exchange fractions 6 and 11 of taste tissue; assay type: biochemical, bovine
# Description: (§1) Preparation of taste extract. 1–2 gm circumvallate taste papillae or fungiform papillae from fresh bovine tongues were dissected and homogenized in a buffer containing 20 mMTris-Cl pH 7.5, 1 mM EDTA, 1 mM DTT, 10% glycerol, 10 μg/ml leupeptin, 10 μg/ml aprotinin, 100 μM AEBSF and 10 μg/ml pepstatin. Homogenization was carried out using a Polytron homogenizer. The homogenate was first spun at 2500×g for 10 minutes at 4° C. and the resulting supernatant was spun at 100,000×g for 30 minutes at 4° C. The supernatant of the second spin was checked for PDE activity and fractionated by anion exchange chromatography.
# (§2) Anion Exchange Chromatography. Supernatant prepared from taste papillae was loaded at 1 ml/min on a DEAE-10 anion exchange column which had been equilibrated with buffer A (20 mM Tris-HCl pH 7.5, 2 mM EDTA, 20 mM β-mercapto ethanol). The column was washed in buffer A for 15 minutes or until protein was no longer detected in the buffer. Bound protein activity was eluted at a flow rate of 2 ml/min with a linear gradient (0–100%) of buffer B (buffer A+1 M NaCl) over 45 minutes Fractions were collected at 4° C. and assayed for PDE Activity. Aliquots of each fraction were boiled in sample buffer for Western blot analysis.
# (§3) PDE Assays and CaM Affinity on Beads. PDE assays followed established procedures (Sonnenburg et al., Methods 1998, 14:3–19). All assays were performed at 30° C. using either 1 μM cAMP or between 0.2 and 1 μM cGMP as substrate in the presence of 1 mM EGTA (basal), 1 mM CaCl2 plus 4 μg/ml CaM (Ca^2+/CaM) or 100 μM effector activation peptide (Gαt-rod) peptide.
# Specificity of the calmodulin affinity beads was checked by doing an affinity chromatography purification in the presence of 2 mM EGTA instead of CaCl2. The beads were incubated with the appropriate fractions at 4° C. for 1 hour, then spun for 2 minutes and the supernatant and pellet kept separately. The beads were then washed in the same buffer and resuspended in the presence of protease inhibitors. PDE activity was checked on the beads and in the supernatant. CaCl2 was compensated in the PDE assays when the CaM affinity was done in presence of excess EGTA.
# [2] = tested on: PDEs in bovine taste tissue fractions; experiment: PDE assay across anion exchange fractions of taste papillae extract; assay type: biochemical; conditions: 100 μM peptide or 1 mM CaCl2 and 4 μg/ml CaM; for stimulation of cGMP hydrolytic activity: 1 μM cGMP; for stimulation of cAMP hydrolysis: 1 μM cAMP
# Description: as §1, §2, §3
# PDE1A1 = target: T1, PDE1A1 (Bos taurus, UniProt P14100); experiment: PDE assay of recombinant PDE over-expressed in HEK-293 cells; assay type: biochemical; conditions: HEK-293 cell homogenate; cGMP substrate; 100 μM peptide or 1 mM CaCl2 and 4 μg/ml CaM
# T1 construct: made in house; host or cells: HEK 293 cells, transient transfection, sonicated lysate
# Description: as §3
# (§4) Over-expression and Assay of Recombinant PDEs. HEK 293 cells were cultured in Eagle's MEM with 2 mM […], Earle's balanced salt solution, 1.5 g/L sodium bicarbonate, 0.1 mM non-essential amino acids, 1 mM sodium pyruvate, and 10% heat-inactivated fetal calf serum. HEK 293 cells were seeded at 0.5×10^6 per well in a 6 well dish. After 24 hours, cells were transfected with DNA constructs using Gene Porter (Gene Therapy Systems), a lipid-based transfection reagent. Cells were transfected with 6 μg DNA (PDE1A1, PDE1A2 or PDE1C3) and 30 μl transfection reagent in serum free media in a volume of 1 ml. After 5 hours, the cells were supplemented with 1 ml media containing twice serum. 24 hours later, the cells were harvested by rinsing twice with PBS, scraping the cells into 200 μl of buffer containing 20 mM Tris-Cl pH 7.5, protease inhibitors (Sigma P- 8340), 1 mM 4-(2-aminoethyl) benzenesulfonyl fluoride (AEBSF), 15 μM pepstatin A, 14 μM trans-epoxysuccinyl-L-leucylamido(4-guanidino) butane (E-64), 40 μM bestatin, 22 μM leupeptin, and 0.8 μM aprotinin. Cells were sonicated in 3 five second bursts at approximately 10 Watts, and the lysates were used as the source of enzyme in the PDE assay.
# PDE1A2 = target: T2, PDE1A2 (Bos taurus, UniProt P14100); experiment: as above; assay type: biochemical; conditions: HEK-293 cell homogenate; cGMP substrate; 100 μM peptide or 1 mM CaCl2 and 4 μg/ml CaM
# T2 construct: made in house; host or cells: HEK 293 cells, transient transfection, sonicated lysate
# Description: as §3, §4
# PDE1C3 = target: T3, PDE1C3 (Homo sapiens, UniProt Q14123); experiment: as above; assay type: biochemical; conditions: HEK-293 cell homogenate; cGMP substrate; 100 μM peptide or 1 mM CaCl2 and 4 μg/ml CaM
# T3 construct: made in house; host or cells: HEK 293 cells, transient transfection, sonicated lysate
# Description: as §3, §4
# PDE 1 = conditions: Yan et al., J. Biol. Chem. 1996; cited from earlier work
# T2 sequence (P14100 whole entry): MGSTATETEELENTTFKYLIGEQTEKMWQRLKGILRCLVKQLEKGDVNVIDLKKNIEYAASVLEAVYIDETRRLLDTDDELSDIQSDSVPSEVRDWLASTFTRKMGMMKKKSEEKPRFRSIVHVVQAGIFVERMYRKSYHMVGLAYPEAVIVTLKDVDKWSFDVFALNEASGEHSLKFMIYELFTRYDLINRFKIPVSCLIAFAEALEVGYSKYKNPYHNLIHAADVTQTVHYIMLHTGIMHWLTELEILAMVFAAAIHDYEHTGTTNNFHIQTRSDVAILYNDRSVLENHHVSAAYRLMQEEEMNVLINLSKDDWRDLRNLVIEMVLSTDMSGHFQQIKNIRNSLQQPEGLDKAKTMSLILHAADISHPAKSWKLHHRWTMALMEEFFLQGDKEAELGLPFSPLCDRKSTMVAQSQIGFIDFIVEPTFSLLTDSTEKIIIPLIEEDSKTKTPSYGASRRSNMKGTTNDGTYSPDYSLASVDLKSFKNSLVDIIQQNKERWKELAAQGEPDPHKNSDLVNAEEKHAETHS
# T3 sequence (Q14123 whole entry): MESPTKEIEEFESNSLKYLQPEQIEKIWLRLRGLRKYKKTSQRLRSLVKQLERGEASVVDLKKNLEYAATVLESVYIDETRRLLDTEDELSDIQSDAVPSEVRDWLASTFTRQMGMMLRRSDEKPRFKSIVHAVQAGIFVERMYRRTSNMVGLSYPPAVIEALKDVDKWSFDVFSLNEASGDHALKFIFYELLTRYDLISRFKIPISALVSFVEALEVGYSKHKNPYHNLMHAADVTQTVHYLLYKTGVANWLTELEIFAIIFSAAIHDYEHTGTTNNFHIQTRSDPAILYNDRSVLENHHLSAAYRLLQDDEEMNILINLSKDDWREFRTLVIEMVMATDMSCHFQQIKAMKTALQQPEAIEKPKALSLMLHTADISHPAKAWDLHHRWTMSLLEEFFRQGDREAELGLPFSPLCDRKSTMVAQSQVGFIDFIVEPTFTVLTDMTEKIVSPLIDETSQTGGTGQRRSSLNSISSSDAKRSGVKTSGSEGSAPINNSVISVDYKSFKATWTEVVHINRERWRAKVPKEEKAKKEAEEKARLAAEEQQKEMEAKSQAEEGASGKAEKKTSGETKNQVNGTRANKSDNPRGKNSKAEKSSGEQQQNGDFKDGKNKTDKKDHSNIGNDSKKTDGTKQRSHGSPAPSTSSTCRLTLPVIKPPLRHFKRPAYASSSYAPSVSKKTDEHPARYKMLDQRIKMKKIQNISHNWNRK
# T1 sequence (P14100 1-514 isoform P14100-2): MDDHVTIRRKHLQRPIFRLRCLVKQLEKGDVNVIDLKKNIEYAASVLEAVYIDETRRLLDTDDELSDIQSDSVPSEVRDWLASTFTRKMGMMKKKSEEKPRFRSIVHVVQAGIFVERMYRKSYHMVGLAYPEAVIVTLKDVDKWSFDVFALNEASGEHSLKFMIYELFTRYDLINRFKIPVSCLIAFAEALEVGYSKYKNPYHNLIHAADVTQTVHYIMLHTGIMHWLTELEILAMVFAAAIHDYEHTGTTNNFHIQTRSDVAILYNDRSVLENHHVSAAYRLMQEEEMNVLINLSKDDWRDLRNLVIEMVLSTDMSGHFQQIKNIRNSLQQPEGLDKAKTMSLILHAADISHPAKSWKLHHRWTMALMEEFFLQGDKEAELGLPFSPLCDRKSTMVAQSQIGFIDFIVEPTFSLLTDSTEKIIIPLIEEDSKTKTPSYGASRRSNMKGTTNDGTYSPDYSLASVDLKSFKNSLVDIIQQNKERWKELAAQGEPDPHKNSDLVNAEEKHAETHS
stimulation of recombinant PDE activity (PDE1A1),stimulation of recombinant PDE activity (PDE1A2),stimulation of recombinant PDE activity (PDE1C3),Compound,"stimulation of PDE activity ([1]; fractions 6 and 11, 100 μM peptide, 1 μM cGMP)","stimulation of cGMP hydrolytic activity ([2]; first peak, fractions 6–7)",stimulation of cAMP hydrolysis ([2]; first three peaks (fractions 6–7; 10–12; 13–15)),"stimulation of cAMP hydrolysis ([2]; fourth peak, fractions 19–23 (PDE4))","stimulation of cGMP hydrolytic activity ([2]; fourth peak, fractions 21–23)","stimulation of cGMP hydrolytic activity ([2]; second peak, fractions 10–12)","stimulation of cGMP hydrolytic activity ([2]; third peak, fractions 13–15)","inhibition of peptide stimulated activity of PDE1A bound to calmodulin beads ([1]; PDE1A bound to calmodulin beads, Gαt-rod peptide stimulated)","inhibition of peptide stimulated PDE activity ([1]; fractions 6 and 11, 1 μM cGMP, 100 μM Gαt-rod peptide)","inhibition of calmodulin stimulated PDE activity ([1]; fractions 6 and 11, 1 μM cGMP, 1 mM CaCl2 and 4 μg/ml CaM)",IC50 (PDE 1)
stimulated,stimulated,stimulated,Gαt-rod peptide: peptide corresponding to the PDE effector-interaction-region of rod transducin (residues 293–314 of transducin Gα) (EDAGNYIKVQFLELNMRRDVKE),stimulated,activated,show stimulation,neither Ca^2+/CaM nor Gαt-rod peptide dependent,not stimulated above the basal level,activated,greatest activity when stimulated,,,,
,,,CN1C(=O)c2[nH]c(Cc3ccc(C(F)(F)F)cc3)nc2N2C1=N[C@@H]1CCC[C@@H]12 [SCH 51866],,,,,,,,also inhibited peptide stimulated activity of PDE1A bound to calmodulin beads,also inhibited peptide stimulated activity,90%,100 nM

# From patent US7179614B2, “Screening methods to identify compounds that modulate type I phosphodiesterase (PDE) activity” (Mount Sinai School of Medicine, priority 2000, dated 2007)
